Measured values from patent publication US7910568B2, “Derivatives of 4- or 5-aminosalicylic acid” (Antibe Therapeutics Inc., priority 2005, dated 2011).

Columns and labels:
Type in all cases: in vivo
COX-1 mRNA = assay: TNBS-induced colitis in mice, colonic COX-1 mRNA by RT-PCR; conditions: dose equimolar to 50 mg/kg mesalamine; FIG. 13
Procedure: (§1) The same model was used as described above. In this example, the effects of mesalamine (50 mg/kg) were compared to those of equimolar doses of Compound XXXV. In addition to measuring the severity of colitis by measuring disease activity score and MPO activity, tissues were processed for measurement of a number of genes for inflammatory cytokines and other mediators.
(§2) In particular, mRNA expression in mice of tumour necrosis factor-alpha (TNF-α), interferon gamma (IFN-γ), colonic interleukin (IL)-1, IL-2, IL-10, IL-12 p40, RANTES, cyclooxygenase (COX)-1, COX-2, constitutive endothelial nitric oxide synthase (eNOS), and inducible NOS (iNOS) was measured as described in Wallace et al. (1999) Gastroenterology 117: 557-566, incorporated herein by reference.
(§3) Briefly, reverse transcription-polymerase chain reaction (RT-PCR) was used to detect and quantify mRNA of the particular cytokine/chemokine/enzyme. Glyceraldehyde-3-phosphate dehydrogenase (GAPDH) was used as the “housekeeping gene” for mRNA expression (i.e., as an internal control). For each sample, the ratio of the amplification of the target gene to the amplification of GAPDH (expression of each is measured by performing densitometry on gels) was obtained. […]

[1] = test system: TNF-α, IFN-γ, IL-1, IL-2, IL-12 p40, RANTES mRNA; assay: TNBS-induced colitis in mice, colonic mRNA of pro-inflammatory cytokines and chemokines by RT-PCR; conditions: dose equimolar to 50 mg/kg mesalamine; normalized to GAPDH, ratio to healthy controls
Procedure: as §1, §2, §3

IL-10 mRNA = assay: TNBS-induced colitis in mice, colonic IL-10 mRNA by RT-PCR; conditions: dose equimolar to 50 mg/kg mesalamine; normalized to GAPDH, ratio to healthy controls
Procedure: as §1, §2, §3

In the case of Nc1ccc(O)c(C(=O)Oc2ccc(-c3cc(=S)ss3)cc2)c1 [Compound XXXV, 5-Amino-2-hydroxy-benzoic acid 4-(5-thioxo-5H-[1,2]dithiol-3-yl)-phenyl ester], the “COX-1 mRNA expression” value (COX-1 mRNA) is reported as “suppressed”, the “Expression of mRNA for pro-inflammatory cytokines and chemokines” value [1] is reported as “suppressed expression of mRNA for several pro-inflammatory cytokines and chemokines” and the “Expression of IL-10 mRNA” value (IL-10 mRNA) is reported as “did not suppress expression of IL-10 mRNA”.
